pIC50: −log10 of the molar value. Blank lines part the entries; values can stand above or below the compound they belong to.
Target: RORγ/γt (Mus musculus, UniProt P51450, T352K)
Test: RORγ/γt-luc reporter S2 cell assay / HTS (firefly luciferase)
Conditions: for Curve Class: RORγ/γt HTS concentration response curve class; for 80% Inhib. @: RORγ/γt reporter, S2 cells, concentration for 80% inhibition
Excerpt: The Drosophila S2 cell line was originally purchased from Invitrogen and was maintained in Schneider's medium supplemented with 10% heat-inactivated bovine fetal calf serum and antibiotics (Invitrogen). Gal4 DNA binding domain (G4 DBD) corresponding to amino acids 1 through 147 of Gal4 protein was PCR amplified to make a fusion construct with mouse RORγt (amino acids 79 to the carboxyl terminal end) lacking its DNA binding domain. The resulting chimeric gene was subcloned into the copper inducible pMT/V5-His A vector (available from Invitrogen). In a similar manner, Gal4 fusion constructs were prepared with mouse RORα (amino acids 142 to end) or Drosophila DHR3 (amino acids 120 to end).
In order to generate stable cell lines, cells were co-transfected with pMT-G4 DBD-RORγt, pMT-G4 DBD-RORα, pMT-G4 DBD-DHR3, or pMT-G4DBDVP16 and pHygro plasmids (Invitrogen) and screened for resistant colonies in the presence of hygromycin (0.3 mg/mL). More than 150 independent RORγ stable clones with luciferase reporters (pMt-RORγ_luc) were tested for their suitability for the high-throughput screening (HTS) based on the following criteria: high signal-to background ratio in 384- and 1,536-well plates, their high induction rate upon the addition of copper, and RORγ/γt specificity probed by the dsRORγ- or RORγ/γt antagonist-mediated suppression. Positive clones were further transfected with pUAST-firefly luciferase, polIII-Renilla luciferase, and pCoPuro (Iwaki, Figuera et al. 2003) (“Rapid selection of Drosophila S2 cells with the puromycin resistance gene.” Biotechniques 35(3): 482-4, 486.) and selected with puromycin (2.5 ug/ml). […] Using similar methods, stable clones with genomic integration of the luciferase reporters and other reporters were generated such as pMT-RORα_luc, pMT-DHR3_luc, or pMT-VP16_luc.
600 G4 DBD-RORγ/γt-luc reporter (#25) or G4 DBD-VP16-luc reporter cells were distributed into each well of 1,536-well white bottom plates in 4 μl S2 cell culture volume containing hygromicin (300 μg/ml) and puromycin (2 μg/ml). Small compounds in seven different concentrations range from 46 μM to 1.7 nM were pin-transferred (23 nl) by a robot (Inglese et al., 2006, Proc. Natl. Acad. Sci. 103:11473-8). […] After 20-hour incubation at ambient temperature, 1.5 μl firefly luciferase detection mix was added and the luciferase activities were measured in 10 min. ViewLux luminometers were used for measuring luciferase signal.
Since their cognate DNA binding sites were not well characterized, the DNA binding domains (DBD) of RORγ/γt, RORα(mouse homolog for PORγ), and DHR3 (Drosophila orthologue for ROR family proteins) were replaced with the heterologous yeast GAL4 DBD. The transcriptionally active domain of general transcriptional activator VP16 was also fused with GAL4 DBD.

Sequence of RORγ/γt (P51450 with tags, fused parts or gaps T352K): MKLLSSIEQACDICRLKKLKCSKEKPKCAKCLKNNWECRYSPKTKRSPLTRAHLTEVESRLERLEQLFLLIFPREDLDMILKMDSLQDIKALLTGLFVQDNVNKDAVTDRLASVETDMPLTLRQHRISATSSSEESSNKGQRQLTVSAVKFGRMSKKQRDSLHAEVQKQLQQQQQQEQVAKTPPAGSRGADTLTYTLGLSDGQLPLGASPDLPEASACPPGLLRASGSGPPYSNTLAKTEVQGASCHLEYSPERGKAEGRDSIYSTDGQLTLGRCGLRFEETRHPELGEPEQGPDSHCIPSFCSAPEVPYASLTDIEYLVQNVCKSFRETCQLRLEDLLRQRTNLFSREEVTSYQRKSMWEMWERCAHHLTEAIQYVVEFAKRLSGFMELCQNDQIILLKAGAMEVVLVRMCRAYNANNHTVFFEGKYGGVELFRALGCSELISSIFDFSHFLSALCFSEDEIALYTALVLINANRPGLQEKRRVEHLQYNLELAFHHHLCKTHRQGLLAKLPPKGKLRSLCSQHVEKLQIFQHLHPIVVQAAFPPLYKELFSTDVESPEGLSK

Compound: CCOC(=O)[C@@H]1[C@H]2COc3cc(OC)ccc3[C@H]2N2C(=O)N(c3ccc(F)cc3)C(=O)[C@]12C [MLS001066238-01]
Curve Class: 4

Compound: CCOC(=O)[C@@H]1[C@H]2COc3ccc(Br)cc3[C@@H]2N2C(=O)N(c3ccccc3)C(=O)[C@]12C [MLS001066242-01]
AC50: 0.0224 µM
Curve Class: 4

Compound: CCOC(=O)[C@@H]1[C@H]2COc3ccccc3[C@H]2N2C(=O)N(c3ccc(C(F)(F)F)cc3)C(=O)[C@]12C [MLS001066275-01]
AC50: 5.01 µM
Curve Class: 4

pIC50: 4.83
80% Inhib. @: 45.85 µM
Compound: COc1ccccc1CNC(=O)[C@@H](NC(=O)C1CCN(C(=O)[C@@H]2CCCN2C(=O)OC(C)(C)C)CC1)C(C)C [MLS001157801-02]

Compound: CCOC(=O)[C@@H]1[C@H]2COc3cc(OC)ccc3[C@@H]2N2C(=O)N(c3cccc(C)c3)C(=O)[C@@]12C [MLS001066270-01]
AC50: 12.6 µM
Curve Class: −3

Compound: CCOC(=O)[C@@H]1[C@H]2COc3ccccc3[C@H]2N2C(=O)N(c3ccc(C)cc3)C(=O)[C@]12C [MLS001066453-01]
AC50: 0.282 µM
Curve Class: 4

Compound: CCOC(=O)[C@@H]1[C@H]2COc3ccccc3[C@@H]2N2C(=O)N(c3ccc(C)cc3)C(=O)[C@]12C [MLS001066443-01]
AC50: 3.98 µM
Curve Class: 4

pIC50: 5.68
80% Inhib. @: 3.293 µM
Compound: C=C1NN=C(c2cc(-c3cccc(OCC)c3)nc3ccccc23)N1CC [MLS000324596-02]

Compound: CCOC(=O)[C@@H]1[C@H]2COc3ccccc3[C@@H]2N2C(=O)N(c3ccc(Cl)cc3)C(=O)[C@@]12C [MLS001066523-01]
AC50: 15.8 µM
Curve Class: −3

Compound: CCOC(=O)[C@@H]1[C@H]2COc3cc(OC)ccc3[C@H]2N2C(=O)N(c3cccc(Cl)c3)C(=O)[C@@]12C [MLS001066311-01]
AC50: 10 µM
Curve Class: 4

Compound: CCOC(=O)[C@@H]1[C@H]2COc3ccc(Br)cc3[C@H]2N2C(=O)N(c3ccc(Br)cc3)C(=O)[C@]12C [MLS001066254-01]
AC50: 1.12 µM
Curve Class: 4

Compound: CCOC(=O)[C@@H]1[C@H]2COc3cc(OC)ccc3[C@@H]2N2C(=O)N(c3cccc(Cl)c3)C(=O)[C@@]12C [MLS001066281-01]
AC50: 11.2 µM
Curve Class: −2.2

Compound: CCOC(=O)[C@@H]1[C@H]2COc3ccccc3[C@@H]2N2C(=O)N(c3ccccc3)C(=O)[C@]12C [MLS001066492-01]
AC50: 0.141 µM
Curve Class: 4

Compound: CCOC(=O)[C@@H]1[C@H]2COc3cc(OC)ccc3[C@@H]2N2C(=O)N(c3ccc(Br)cc3)C(=O)[C@@]12C [MLS001066318-01]
AC50: 7.94 µM
Curve Class: −2.1

Compound: CCOC(=O)[C@@H]1[C@H]2COc3cc(OC)ccc3[C@H]2N2C(=O)N(c3ccc(C(F)(F)F)cc3)C(=O)[C@@]12C [MLS001066250-01]
AC50: 4.47 µM
Curve Class: 4

pIC50: 4.41
80% Inhib. @: 161.2 µM
Compound: CC(C)[C@@H](NC(=O)C1CCN(C(=O)[C@@H]2CCCN2C(=O)OC(C)(C)C)CC1)C(=O)NCc1ccc(F)cc1 [MLS001141034-02]

Compound: CCOC(=O)[C@@H]1[C@H]2COc3ccc(Br)cc3[C@@H]2N2C(=O)N(c3ccc(Br)cc3)C(=O)[C@]12C [MLS001066244-01]
AC50: 0.0056 µM
Curve Class: 4

Compound: CCOC(=O)[C@@H]1[C@H]2COc3ccc(Br)cc3[C@@H]2N2C(=O)N(c3ccc(C(F)(F)F)cc3)C(=O)[C@]12C [MLS001066035-01]
AC50: 3.98 µM
Curve Class: 4

Compound: CCOC(=O)[C@@H]1[C@H]2COc3ccccc3[C@@H]2N2C(=O)N(c3ccc(F)cc3)C(=O)[C@@]12C [MLS001066483-01]
AC50: 12.6 µM
Curve Class: −2.2

Compound: CCOC(=O)[C@@H]1[C@H]2COc3ccccc3[C@@H]2N2C(=O)N(c3cccc(Cl)c3)C(=O)[C@]12C [MLS001066286-01]
Curve Class: 4

Compound: CCOC(=O)[C@@H]1[C@H]2COc3ccccc3[C@H]2N2C(=O)N(c3ccc(OC)cc3)C(=O)[C@]12C [MLS001066225-01]
Curve Class: 4

Compound: CCOC(=O)[C@@H]1[C@H]2COc3ccccc3[C@H]2N2C(=O)N(c3cccc(F)c3)C(=O)[C@]12C [MLS001066256-01]
Curve Class: 4

Compound: CCOC(=O)[C@@H]1[C@H]2COc3ccccc3[C@@H]2N2C(=O)N(c3ccc(OC)cc3)C(=O)[C@@]12C [MLS001066514-01]
AC50: 14.1 µM
Curve Class: 4

Compound: CCOC(=O)[C@@H]1[C@H]2COc3cc(OC)ccc3[C@@H]2N2C(=O)N(c3cccc(Cl)c3)C(=O)[C@]12C [MLS001066291-01]
AC50: 0.112 µM
Curve Class: 4

Compound: CCOC(=O)[C@@H]1[C@H]2COc3ccc(Br)cc3[C@@H]2N2C(=O)N(c3ccc(F)cc3)C(=O)[C@]12C [MLS001066243-01]
AC50: 0.891 µM
Curve Class: 4

Compound: CCOC(=O)[C@@H]1[C@H]2COc3cc(OC)ccc3[C@H]2N2C(=O)N(c3ccc(F)cc3)C(=O)[C@@]12C [MLS001066248-01]
Curve Class: 4

Compound: CCOC(=O)[C@@H]1[C@H]2COc3ccccc3[C@H]2N2C(=O)N(c3cccc(Cl)c3)C(=O)[C@@]12C [MLS001066306-01]
AC50: 7.08 µM
Curve Class: 4
